In US20040006061A1, “Alkoxybenzylamine” (priority 2001, published 2004):

Each molecule was assayed on Escherichia coli NCTC 8196 (assay: Determination of the Minimum Inhibitory Concentration (MIC value) in microtitre plates, Escherichia coli). Conditions: Escherichia coli NCTC 8196; CASO broth, 48 hours at 37° C.; MIC = ≦20% growth (optical density at 620 nm).
Format: cell-based
Procedure: (§1) Determination of the Minimum Inhibitory Concentration (MIC Value) in Microtitre Plates
Casein-soybean flour-peptone broth for preparation of pre-cultures of test bacteria and yeast. […]
Escherichia coli NCTC 8196
(§2) The test substances are pre-dissolved in dimethyl sulfoxide (DMSO) and tested in a dilution series of 1:2.
(§3) The bacteria are cultured overnight in CASO broth and washed off using 10 ml of 0.85% sodium chloride solution (+0.1% Triton X-100).
(§4) All the test organisms are adjusted to an organism count of 1-5×10^6 CFU/ml using 0.85% sodium chloride solution.
(§5) The test substances are pre-pipetted into microtitre plates in amounts of 8 μl per well.
(§6) Pre-diluted test organism suspensions are diluted 1:100 in CASO broth.
(§7) The test batches are incubated for 48 hours at 37° C.
(§8) After incubation, the growth is determined on the basis of the turbidity of the test batches (optical density) at 620 nm in a microplate reader.
(§9) The minimum inhibitory concentration (MIC value) is the concentration of substance at which there is found (compared to the growth of the control) an appreciable inhibition of growth (≦20% growth) of the test organisms.
(§10) One microtitre plate is used for each test organism and substance concentration.
(§11) All the substances are tested in duplicate.
In the case of CCCCCCCCCCCCOc1ccc(CN2CCCC2)cc1 [Compound of formula (83)], the “MIC [μg/ml] EC” value is reported as greater than 120 µg/mL.

Same assay, conditions: Escherichia coli, NCTC8196, 48 h, Escherichia coli NCTC 8196; CASO broth, 48 hours at 37° C.; MIC = ≦20% growth (optical density at 620 nm); read-out: MIC [μg/ml] EC
Molecule CCCCCCCCCCCCOc1ccc(CN2CCN(c3cccc(OC)c3)CC2)cc1OC [Compound of formula (22)] has an MIC greater than 120 µg/mL.
For CCCCCCCCCCCCOc1ccc(CN2CCN(CC)CC2)cc1 [Compound of formula (81)], the MIC was greater than 120 µg/mL.
CCCCCCOc1ccc(CN(C)C)cc1OC [Compound of formula (36)] gave an MIC greater than 120 µg/mL.
With CCCCCCOc1ccc(CN(CC)CC)cc1OC [Compound of formula (29)] the MIC was greater than 120 µg/mL.
CCCCN(C)Cc1ccc(OCCC)c(OC)c1 [Compound of formula (57)] was tested, and the MIC was 120 µg/mL.
CCCCCCOc1ccc(CN2CCN(C)CC2)cc1OCCCCCC [Compound of formula (92)] gave an MIC of 60 µg/mL.
CCCCCCCCCCCCOc1ccc(CN2CCN(C(C)=O)CC2)cc1 [Compound of formula (78)] gave an MIC greater than 120 µg/mL.
In the case of CCCCCCOc1ccc(CN(C)CCc2ccccn2)cc1OC [Compound of formula (23)], the MIC is reported as greater than 120 µg/mL.
Work on CCCCCCOc1ccc(CN(C)Cc2ccccc2)cc1OC [Compound of formula (31)] yielded an MIC greater than 120 µg/mL.
CCCCCCCCCCCCOc1ccc(CN(C)CCc2ccccn2)cc1 [Compound of formula (71)] was tested, and the MIC was greater than 120 µg/mL.
Work on CCCCCCCCCCCCOc1ccc(CN2CCCCCC2)cc1OC [Compound of formula (10)] yielded an MIC greater than 120 µg/mL.
CCCCCCCCOc1ccc(CN(C)CCCC)cc1OC [Compound of formula (41)] gave an MIC of 15 µg/mL.
CCCCCCOc1ccc(CN(C)CCc2ccccn2)cc1OCCCCCC [Compound of formula (87)] was tested, and the MIC was greater than 120 µg/mL.
For CCCCCCCCCCCCOc1ccc(CN(C)Cc2ccccc2)cc1 [Compound of formula (79)], the MIC was greater than 120 µg/mL.
For CCCCCCOc1ccc(CN(C)CCCCCC)cc1OCCCCCC [Compound of formula (96)], the MIC was greater than 120 µg/mL.
For CCCCCCN(C)Cc1ccc(OCCC)c(OC)c1 [Compound of formula (64)], the MIC was greater than 120 µg/mL.
Work on CCCCCCOc1ccc(CN2CCOCC2)cc1OCCCCCC [Compound of formula (88)] yielded an MIC greater than 120 µg/mL.
CCCOc1ccc(CN(CC)CC)cc1OC [Compound of formula (61)] was tested, and the MIC was greater than 120 µg/mL.
Molecule CCCCCCCCCCCCOc1ccc(CN2CCOCC2)cc1 [Compound of formula (72)] has an MIC greater than 120 µg/mL.
With CCCCCCCCCCCCOc1ccc(CN2CCNCC2)cc1 [Compound of formula (85)] the MIC was greater than 120 µg/mL.
CCCCCCCCCCCCOc1ccc(CN2CCN(C)CC2)cc1 [Compound of formula (76)] gave an MIC greater than 120 µg/mL.
For CCCCCCOc1ccc(CN(C(C)C)C(C)C)cc1OCCCCCC [Compound of formula (91)], the MIC was greater than 120 µg/mL.
CCCCCCCCCCCCN(C)Cc1ccc(OCCCCCC)c(OCCCCCC)c1 [Compound of formula (99)] showed an MIC greater than 120 µg/mL.
Work on CCCCCCCCCCCCOc1ccc(CN(C)C)cc1 [Compound of formula (84)] yielded an MIC of 60 µg/mL.
Work on CCCCCCCCOc1ccc(CN2CCN(CC)CC2)cc1OC [Compound of formula (49)] yielded an MIC of 120 µg/mL.
Molecule CCCCCCOc1ccc(CN2CCCCC2)cc1OC [Compound of formula (5)] has an MIC greater than 120 µg/mL.
In the case of CCCOc1ccc(CN(C(C)C)C(C)C)cc1OC [Compound of formula (59)], the MIC is reported as greater than 120 µg/mL.
CCCOc1ccc(CN(C)Cc2ccccc2)cc1OC [Compound of formula (63)] gave an MIC greater than 120 µg/mL.
For CCCOc1ccc(CN2CCOCC2)cc1OC [Compound of formula (56)], the MIC was greater than 120 µg/mL.
CCCOc1ccc(CN2CCCCC2)cc1OC [Compound of formula (70)] gave an MIC greater than 120 µg/mL.

What follows are molecules tested on Staphylococcus hominis DSM 20328 (assay: Determination of the Minimum Inhibitory Concentration (MIC value) in microtitre plates, Staphylococcus hominis). Conditions: Staphylococcus hominis DSM 20328; CASO broth, 48 hours at 37° C.; MIC = ≦20% growth (optical density at 620 nm); listed as (83).
Format: cell-based
Procedure: as §1
Casein-soybean flour-peptone broth for preparation of pre-cultures of test bacteria and yeast.
Staphylococcus hominis DSM 20328 […]
as §2, §3, §4, §5, §6, §7, §8, §9, §10, §11
CCCCCCCCCCCCOc1ccc(CN2CCCC2)cc1 [Compound of formula (83)] was tested, and the “MIC [μg/ml] SH” value was greater than 120 µg/mL.

Same assay, conditions: Staphylococcus hominis, DSM20328, 48 h, Staphylococcus hominis DSM 20328; CASO broth, 48 hours at 37° C.; MIC = ≦20% growth (optical density at 620 nm); read-out: MIC [μg/ml] SH
CCCCCCCCCCCCOc1ccc(CN2CCN(c3cccc(OC)c3)CC2)cc1OC [Compound of formula (22)] was tested, and the MIC was greater than 120 µg/mL.
With CCCCCCCCCCCCOc1ccc(CN2CCN(CC)CC2)cc1 [Compound of formula (81)] the MIC was 15 µg/mL.
CCCCCCOc1ccc(CN(C)C)cc1OC [Compound of formula (36)] showed an MIC greater than 120 µg/mL.
For CCCCCCOc1ccc(CN(CC)CC)cc1OC [Compound of formula (29)], the MIC was greater than 120 µg/mL.
CCCCN(C)Cc1ccc(OCCC)c(OC)c1 [Compound of formula (57)] was tested, and the MIC was greater than 120 µg/mL.
Molecule CCCCCCOc1ccc(CN2CCN(C)CC2)cc1OCCCCCC [Compound of formula (92)] has an MIC of 15 µg/mL.
Molecule CCCCCCCCCCCCOc1ccc(CN2CCN(C(C)=O)CC2)cc1 [Compound of formula (78)] has an MIC greater than 120 µg/mL.
Molecule CCCCCCOc1ccc(CN(C)CCc2ccccn2)cc1OC [Compound of formula (23)] has an MIC of 60 µg/mL.
For CCCCCCOc1ccc(CN(C)Cc2ccccc2)cc1OC [Compound of formula (31)], the MIC was greater than 120 µg/mL.
For CCCCCCCCCCCCOc1ccc(CN(C)CCc2ccccn2)cc1 [Compound of formula (71)], the MIC was greater than 120 µg/mL.
Molecule CCCCCCCCCCCCOc1ccc(CN2CCCCCC2)cc1OC [Compound of formula (10)] has an MIC of 3.75 µg/mL.
CCCCCCCCOc1ccc(CN(C)CCCC)cc1OC [Compound of formula (41)] gave an MIC of 15 µg/mL.
Molecule CCCCCCOc1ccc(CN(C)CCc2ccccn2)cc1OCCCCCC [Compound of formula (87)] has an MIC of 30 µg/mL.
Molecule CCCCCCCCCCCCOc1ccc(CN(C)Cc2ccccc2)cc1 [Compound of formula (79)] has an MIC of 60 µg/mL.
In the case of CCCCCCOc1ccc(CN(C)CCCCCC)cc1OCCCCCC [Compound of formula (96)], the MIC is reported as 120 µg/mL.
Molecule CCCCCCN(C)Cc1ccc(OCCC)c(OC)c1 [Compound of formula (64)] has an MIC greater than 120 µg/mL.
CCCCCCOc1ccc(CN2CCOCC2)cc1OCCCCCC [Compound of formula (88)] was tested, and the MIC was greater than 120 µg/mL.
Molecule CCCOc1ccc(CN(CC)CC)cc1OC [Compound of formula (61)] has an MIC greater than 120 µg/mL.
Work on CCCCCCCCCCCCOc1ccc(CN2CCOCC2)cc1 [Compound of formula (72)] yielded an MIC greater than 120 µg/mL.
In the case of CCCCCCCCCCCCOc1ccc(CN2CCNCC2)cc1 [Compound of formula (85)], the MIC is reported as greater than 120 µg/mL.
Molecule CCCCCCCCCCCCOc1ccc(CN2CCN(C)CC2)cc1 [Compound of formula (76)] has an MIC of 7.5 µg/mL.
With CCCCCCOc1ccc(CN(C(C)C)C(C)C)cc1OCCCCCC [Compound of formula (91)] the MIC was greater than 120 µg/mL.
In the case of CCCCCCCCCCCCN(C)Cc1ccc(OCCCCCC)c(OCCCCCC)c1 [Compound of formula (99)], the MIC is reported as greater than 120 µg/mL.
For CCCCCCCCCCCCOc1ccc(CN(C)C)cc1 [Compound of formula (84)], the MIC was 7.5 µg/mL.
CCCCCCCCOc1ccc(CN2CCN(CC)CC2)cc1OC [Compound of formula (49)] was tested, and the MIC was 60 µg/mL.
CCCCCCOc1ccc(CN2CCCCC2)cc1OC [Compound of formula (5)] was tested, and the MIC was greater than 120 µg/mL.
CCCOc1ccc(CN(C(C)C)C(C)C)cc1OC [Compound of formula (59)] showed an MIC greater than 120 µg/mL.
For CCCOc1ccc(CN(C)Cc2ccccc2)cc1OC [Compound of formula (63)], the MIC was greater than 120 µg/mL.
Work on CCCOc1ccc(CN2CCOCC2)cc1OC [Compound of formula (56)] yielded an MIC of 120 µg/mL.
With CCCOc1ccc(CN2CCCCC2)cc1OC [Compound of formula (70)] the MIC was greater than 120 µg/mL.
